Measurements as given in patent publication US20250092014A1, “COMPOUNDS AND METHODS OF ACTIVATING LIPOPROTEIN LIPASE” (Metrea Biosciences, Inc., priority 2021, published 2025).

Molecular target: T1, LPL (native bovine milk protein) inactivated by ANGPTL4 (Bos taurus, UniProt P11151)
T1 construct: from tissue; host or cells: bovine milk (LPL); E. coli (GST-ANGPTL4)
T1 sequence (P11151 29-478): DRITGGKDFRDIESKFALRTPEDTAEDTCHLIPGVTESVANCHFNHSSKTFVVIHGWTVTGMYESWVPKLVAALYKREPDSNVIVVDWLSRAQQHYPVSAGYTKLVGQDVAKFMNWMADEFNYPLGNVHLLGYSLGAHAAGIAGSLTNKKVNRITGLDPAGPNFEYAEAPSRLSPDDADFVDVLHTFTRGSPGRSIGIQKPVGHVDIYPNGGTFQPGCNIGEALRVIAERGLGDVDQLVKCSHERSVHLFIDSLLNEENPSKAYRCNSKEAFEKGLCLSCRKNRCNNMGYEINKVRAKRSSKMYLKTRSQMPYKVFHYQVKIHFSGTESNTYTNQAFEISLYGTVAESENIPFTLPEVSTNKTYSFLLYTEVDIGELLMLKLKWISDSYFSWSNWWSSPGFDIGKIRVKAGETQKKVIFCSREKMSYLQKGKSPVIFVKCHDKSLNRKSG
Assay: LPL ANGPTL4 protection assay (LPL fluorescence assay, resorufin butyrate substrate)
Assay type: biochemical
Details: LPL activation activity, LPL 2.5 nM, ANGPTL4 20 nM

O=C(O)Cc1cc(F)ccc1NC(=O)c1ccc(N2CCCCC2)c(NC(=O)c2nn(CC(F)(F)F)c3ccccc23)c1 [Compound 158, 2-(5-fluoro-2-(4-(piperidin-1-yl)-3-(1-(2,2,2-trifluoroethyl)-1H-indazole-3-carboxamido)benzamido)phenyl)acetic acid]
EC50: 1010 nM
